Laboratory results reported in PubChem BioAssay AID1963978 (Molecular Pharmacology Branch, DTP, NCI, 2024).

System: 616215-338-R-J1-PDC spheroids with HUVEC/MSC, viability
Test: Anticancer human tumor 616215-338-R-J1-PDC patient-derived colon adenocarcinoma cell line growth inhibition [PI3K]
Conditions: for IC50: curve of first compound; for viability, T/C: stronger effect = lower value
In short: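 Tumor cells were combined with HUVEC and MSCs into spheroids, then dosed with PI3K-inhibitor combinations over half-log ranges capped near clinical Cmax or 10 microM.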

[1] = second compound 0.00316 µM, first compound 0.000316 µM
[2] = second compound 0.00316 µM, first compound 0.001 µM
[3] = second compound 0.00316 µM, first compound 0.00316 µM
[4] = second compound 0.00316 µM, first compound 0.01 µM
[5] = second compound 0.00316 µM, first compound 0.0316 µM
[6] = second compound 0.00316 µM, first compound 0.1 µM
[7] = second compound 0.01 µM, first compound 0.000316 µM
[8] = second compound 0.01 µM, first compound 0.001 µM
[9] = second compound 0.01 µM, first compound 0.00316 µM
[10] = second compound 0.01 µM, first compound 0.01 µM
[11] = second compound 0.01 µM, first compound 0.0316 µM
[12] = second compound 0.01 µM, first compound 0.1 µM
[13] = second compound 0.0316 µM, first compound 0.000316 µM
[14] = second compound 0.0316 µM, first compound 0.001 µM
[15] = second compound 0.0316 µM, first compound 0.00316 µM
[16] = second compound 0.0316 µM, first compound 0.01 µM
[17] = second compound 0.0316 µM, first compound 0.0316 µM
[18] = second compound 0.0316 µM, first compound 0.1 µM
[19] = second compound 0.1 µM, first compound 0.000316 µM
[20] = second compound 0.1 µM, first compound 0.001 µM
[21] = second compound 0.1 µM, first compound 0.00316 µM
[22] = second compound 0.1 µM, first compound 0.01 µM
[23] = second compound 0.1 µM, first compound 0.0316 µM
[24] = second compound 0.1 µM, first compound 0.1 µM
[25] = second compound 0.316 µM, first compound 0.000316 µM
[26] = second compound 0.316 µM, first compound 0.001 µM
[27] = second compound 0.316 µM, first compound 0.00316 µM
[28] = second compound 0.316 µM, first compound 0.01 µM
[29] = second compound 0.316 µM, first compound 0.0316 µM
[30] = second compound 0.316 µM, first compound 0.1 µM
[31] = second compound 1 µM, first compound 0.000316 µM
[32] = second compound 1 µM, first compound 0.001 µM
[33] = second compound 1 µM, first compound 0.00316 µM
[34] = second compound 1 µM, first compound 0.01 µM
[35] = second compound 1 µM, first compound 0.0316 µM
[36] = second compound 1 µM, first compound 0.1 µM
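Also: spheroids exposed to agents for seven days before the viability read.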

CC(C)n1nc(-c2ccc3oc(N)nc3c2)c2c(N)ncnc21 + CC(Nc1ccc2c(c1)OCCn1cc(N3C(=O)OCC3C(F)F)nc1-2)C(N)=O
IC50 (second compound 0.00316 µM): > 100 nM
IC50 (second compound 0.01 µM): > 100 nM
IC50 (second compound 0.0316 µM): > 100 nM
IC50 (second compound 0.1 µM): > 100 nM
IC50 (second compound 0.316 µM): > 100 nM
IC50 (second compound 1 µM): 93.2 nM
viability, T/C [1]: 92.2%
viability, T/C [2]: 90.5%
viability, T/C [3]: 87.2%
viability, T/C [4]: 114%
viability, T/C [5]: 99.2%
viability, T/C [6]: 91.5%
viability, T/C [7]: 93%
viability, T/C [8]: 102%
viability, T/C [9]: 111%
viability, T/C [10]: 112%
viability, T/C [11]: 113%
viability, T/C [12]: 102%
viability, T/C [13]: 100%
viability, T/C [14]: 95.3%
viability, T/C [15]: 103%
viability, T/C [16]: 118%
viability, T/C [17]: 108%
viability, T/C [18]: 82.1%
viability, T/C [19]: 110%
viability, T/C [20]: 95.3%
viability, T/C [21]: 100%
viability, T/C [22]: 110%
viability, T/C [23]: 117%
viability, T/C [24]: 81.5%
viability, T/C [25]: 96.6%
viability, T/C [26]: 95.8%
viability, T/C [27]: 98.8%
viability, T/C [28]: 110%
viability, T/C [29]: 94.6%
viability, T/C [30]: 76.2%
viability, T/C [31]: 102%
viability, T/C [32]: 118%
viability, T/C [33]: 106%
viability, T/C [34]: 96.7%
viability, T/C [35]: 86.6%
viability, T/C [36]: 47.4%

CC(=O)c1c(C)c2cnc(Nc3ccc(N4CCNCC4)cn3)nc2n(C2CCCC2)c1=O + CC(Nc1ccc2c(c1)OCCn1cc(N3C(=O)OCC3C(F)F)nc1-2)C(N)=O
IC50 (second compound 0.00316 µM): > 100 nM
IC50 (second compound 0.01 µM): > 100 nM
IC50 (second compound 0.0316 µM): > 100 nM
IC50 (second compound 0.1 µM): > 100 nM
IC50 (second compound 0.316 µM): > 100 nM
IC50 (second compound 1 µM): > 100 nM
viability, T/C [1]: 87.7%
viability, T/C [2]: 104%
viability, T/C [3]: 93%
viability, T/C [4]: 99.4%
viability, T/C [5]: 94.6%
viability, T/C [6]: 95.9%
viability, T/C [7]: 99.6%
viability, T/C [8]: 100%
viability, T/C [9]: 107%
viability, T/C [10]: 90.2%
viability, T/C [11]: 99.5%
viability, T/C [12]: 96.5%
viability, T/C [13]: 93.2%
viability, T/C [14]: 102%
viability, T/C [15]: 98.2%
viability, T/C [16]: 101%
viability, T/C [17]: 91.5%
viability, T/C [18]: 107%
viability, T/C [19]: 102%
viability, T/C [20]: 99%
viability, T/C [21]: 92.6%
viability, T/C [22]: 112%
viability, T/C [23]: 93.8%
viability, T/C [24]: 101%
viability, T/C [25]: 106%
viability, T/C [26]: 112%
viability, T/C [27]: 100%
viability, T/C [28]: 106%
viability, T/C [29]: 98%
viability, T/C [30]: 90.2%
viability, T/C [31]: 105%
viability, T/C [32]: 94.7%
viability, T/C [33]: 102%
viability, T/C [34]: 105%
viability, T/C [35]: 95.1%
viability, T/C [36]: 81.7%

CC1(C)CCC(CN2CCN(c3ccc(C(=O)NS(=O)(=O)c4ccc(NCC5CCOCC5)c([N+](=O)[O-])c4)c(Oc4cnc5[nH]ccc5c4)c3)CC2)=C(c2ccc(Cl)cc2)C1 + CC(Nc1ccc2c(c1)OCCn1cc(N3C(=O)OCC3C(F)F)nc1-2)C(N)=O
IC50 (second compound 0.00316 µM): 4600 nM
IC50 (second compound 0.01 µM): 4670 nM
IC50 (second compound 0.0316 µM): 5270 nM
IC50 (second compound 0.1 µM): 5250 nM
IC50 (second compound 0.316 µM): 5430 nM
IC50 (second compound 1 µM): 5180 nM
viability, T/C [5]: 88.6%
viability, T/C [6]: 95.9%
viability, T/C (second compound 0.00316 µM, first compound 0.316 µM): 104%
viability, T/C (second compound 0.00316 µM, first compound 1 µM): 101%
viability, T/C (second compound 0.00316 µM, first compound 3.16 µM): 72.8%
viability, T/C (second compound 0.00316 µM, first compound 10 µM): 2.83%
viability, T/C [11]: 92.9%
viability, T/C [12]: 101%
viability, T/C (second compound 0.01 µM, first compound 0.316 µM): 99.4%
viability, T/C (second compound 0.01 µM, first compound 1 µM): 106%
viability, T/C (second compound 0.01 µM, first compound 3.16 µM): 74.5%
viability, T/C (second compound 0.01 µM, first compound 10 µM): 2.57%
viability, T/C [17]: 90.5%
viability, T/C [18]: 94.3%
viability, T/C (second compound 0.0316 µM, first compound 0.316 µM): 96.6%
viability, T/C (second compound 0.0316 µM, first compound 1 µM): 102%
viability, T/C (second compound 0.0316 µM, first compound 3.16 µM): 86.9%
viability, T/C (second compound 0.0316 µM, first compound 10 µM): 3.65%
viability, T/C [23]: 105%
viability, T/C [24]: 97.8%
viability, T/C (second compound 0.1 µM, first compound 0.316 µM): 102%
viability, T/C (second compound 0.1 µM, first compound 1 µM): 93.2%
viability, T/C (second compound 0.1 µM, first compound 3.16 µM): 87.9%
viability, T/C (second compound 0.1 µM, first compound 10 µM): 1.87%
viability, T/C [29]: 98.5%
viability, T/C [30]: 86.5%
viability, T/C (second compound 0.316 µM, first compound 0.316 µM): 93.5%
viability, T/C (second compound 0.316 µM, first compound 1 µM): 102%
viability, T/C (second compound 0.316 µM, first compound 3.16 µM): 92.5%
viability, T/C (second compound 0.316 µM, first compound 10 µM): 2.04%
viability, T/C [35]: 107%
viability, T/C [36]: 104%
viability, T/C (second compound 1 µM, first compound 0.316 µM): 113%
viability, T/C (second compound 1 µM, first compound 1 µM): 103%
viability, T/C (second compound 1 µM, first compound 3.16 µM): 86.3%
viability, T/C (second compound 1 µM, first compound 10 µM): 1.64%
